Target: T1, JAK3 kinase (Homo sapiens, UniProt P52333)
T1 construct: purchased Carna 08-046
T1 sequence (P52333 1-1124): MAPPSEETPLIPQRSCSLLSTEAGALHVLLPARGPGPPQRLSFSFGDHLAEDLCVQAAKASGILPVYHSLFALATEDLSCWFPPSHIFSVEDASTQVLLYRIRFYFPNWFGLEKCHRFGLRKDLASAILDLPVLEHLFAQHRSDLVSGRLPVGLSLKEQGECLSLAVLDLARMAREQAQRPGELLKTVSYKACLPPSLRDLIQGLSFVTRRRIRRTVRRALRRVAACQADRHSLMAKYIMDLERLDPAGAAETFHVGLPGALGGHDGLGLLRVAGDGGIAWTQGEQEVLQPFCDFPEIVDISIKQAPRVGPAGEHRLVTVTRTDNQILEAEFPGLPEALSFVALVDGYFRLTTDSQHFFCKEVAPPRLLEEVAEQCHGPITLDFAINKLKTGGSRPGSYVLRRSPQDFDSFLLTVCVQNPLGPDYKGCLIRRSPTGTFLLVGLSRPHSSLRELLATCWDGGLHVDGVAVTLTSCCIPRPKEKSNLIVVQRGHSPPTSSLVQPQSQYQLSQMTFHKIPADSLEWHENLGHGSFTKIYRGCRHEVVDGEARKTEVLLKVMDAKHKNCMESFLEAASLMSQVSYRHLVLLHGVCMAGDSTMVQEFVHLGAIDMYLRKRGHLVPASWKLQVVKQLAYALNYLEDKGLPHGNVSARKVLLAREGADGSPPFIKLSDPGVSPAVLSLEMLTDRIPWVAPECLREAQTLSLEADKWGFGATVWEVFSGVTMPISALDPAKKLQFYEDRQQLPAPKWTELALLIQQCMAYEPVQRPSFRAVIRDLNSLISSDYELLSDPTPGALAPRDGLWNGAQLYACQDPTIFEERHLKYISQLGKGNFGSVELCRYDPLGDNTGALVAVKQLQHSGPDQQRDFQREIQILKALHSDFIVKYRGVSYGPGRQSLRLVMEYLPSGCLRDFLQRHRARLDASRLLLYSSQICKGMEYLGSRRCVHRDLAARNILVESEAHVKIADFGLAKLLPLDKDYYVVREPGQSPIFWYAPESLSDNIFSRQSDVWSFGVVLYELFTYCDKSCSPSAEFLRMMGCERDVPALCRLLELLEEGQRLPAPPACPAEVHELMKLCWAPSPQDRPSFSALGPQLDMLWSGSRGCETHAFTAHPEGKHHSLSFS
Test: IC50 evaluation assay on JAK3 kinase inhibition (Caliper)
Type: biochemical
Conditions: adenosine triphosphate at Km; 1 hour at 28° C.; average of two tests; read-out: IC50 (nM) inhibiting JAK 3 kinase
Procedure: 1. The compound was dissolved in 100% DMSO, diluted into solutions with appropriate concentration gradients with water according to experimental requirement, and added to a 384-well plate.
2. JAK2 kinase (Carna, Cat. No. 08-045, Lot. No. 07CBS-1927) and JAK3 kinase (Carna, Cat. No. 08-046, Lot. No. 08CBS-0371) were diluted to the optimum concentration with the following buffer solution: 50 mM HEPES, pH 7.5, 0.0015% Brij-35, 2 mM DTT. JAK1 kinase (Carna, Cat. No. 08-144, Lot. No. 11CBS-0144D) was diluted to the optimum concentration with the following buffer solution: 25 mM HEPES pH 7.5, 0.01% Brij-35, 2 mM DTT, 0.01M Triton. Transfer to the 384-well plate and incubated with the compound for a period of time.
3. […] The substrate of JAK1 was diluted to the optimum concentration with the following buffer: 25 mM HEPES, pH 7.5, 0.01% Brij-35, 10 mM MgCl2, 0.01M Triton, adenosine triphosphate at Km. Add to the 384-well plate to initiate there action and react for 1 hour at 28° C.
4. 1 Eq. of sulfuric acid solution was added to terminate the reaction, the conversion rate was read with Caliper Reader. The inhibition rate was calculated as the average of two tests.

Q: How did the IC50 turn out when COc1cc(F)ccc1-c1c(C)sc2cnc(Nc3cnn(C4CCN(CCO)CC4)c3)nc12 [Compound 34, 2-[4-(4-{[7-(4-fluoro-2-methoxyphenyl)-6-methylthieno[3,2-d]pyrimidinyl-2-yl]amino}-1H-pyrazol-1-yl)-piperidinyl-1-yl]-1-ethanol] was run?
A: 1.1 nM

Reference: US10494378B2, “Fused ring pyrimidine compound, intermediate, and preparation method, composition and use thereof” (GUANGZHOU MAXINOVEL PHARMACEUTICALS CO., LTD., priority 2015, dated 2019)
